This is an account of results in patent US6056941A, “Kit for the preparation of technetium TC 99m teboroxime myocardial perfusion agent” (priority 1999, dated 2000).

SMILES strings stand for the structures. A value given as a limit tells only on which side of the number the result lay.

This data set is described as follows: Clearance following intravenous administration in normal subjects (heart and liver). The class given is in vivo, human. The source says: Table II approximates the effective clearance of Technetium Tc-99 m Teboroxime from the heart and liver.

With `C[B-](ON=C1CCCCC1=N[O-])(ON=C1CCCCC1=NO)ON=C1CCCCC1=NO.[99Tc+3].[Cl-]` [Technetium Tc-99 m Teboroxime, ^99m Tc (chlorine) (1,2-cyclohexanedione dioxime)3 methyl boron], the “clearance from the circulation” value is listed as “rapidly cleared from the circulation”. For the same compound, the “time of peak heart uptake” value (heart) is ≤ 2 min. Besides, the “effective clearance, Heart” value (heart, 5 min) is listed as 2.3%. Besides, the “effective clearance, Heart” value (heart, 10 min) was found to be 1.7%. In addition, for the setting “heart, 15 min”, the “effective clearance, Heart” value was determined as 1.5%. Further, the “effective clearance, Heart” value (heart, 20 min) amounted to 1.3%. For the same compound, under “heart, 1 hr”, the “effective clearance, Heart” value is given as 1.1%. For the same compound, the “effective clearance, Heart” value (heart, 2 hr) was 0.8%. Besides, for the setting “heart, 4 hr”, the “effective clearance, Heart” value came out at 0.6%. The “effective clearance, Liver” value (5 min) is listed as 23%. In addition, for the setting “10 min”, the “effective clearance, Liver” value came to 33%. Where the note is “15 min”, the “effective clearance, Liver” value is 32%. Besides, the “effective clearance, Liver” value (20 min) is 27%. Besides, the “effective clearance, Liver” value (1 hr) was determined as 24%. Further, the “effective clearance, Liver” value (2 hr) is reported as 18%. In addition, the “effective clearance, Liver” value (4 hr) stood at 17%.
